{
  "source": "patent US20210153773A1",
  "about": "“DEVICE AND METHOD FOR DETECTION AND MONITORING OF COUGH” (priority 2019, published 2021)",
  "test_system": "cough reflex",
  "test": "Citric acid spray tussive challenge (cough provocation)",
  "settings": "50 mg/mL in distilled water, perfume sprayer held about 1 foot from the nose, ~0.07 to 0.10 mL per activation, every subject tested (n=10)",
  "experimental": "When held at about 1 foot in front of the nose and activated, a fine spray of ˜0.07 to 0.10 mL is released per activation.",
  "data": [
    {"smiles": "O=C(O)CC(O)(CC(=O)O)C(=O)O", "note": "[citric acid]", "values": [
      {"measurement": "number of coughs provoked by inhaled spray", "value": "one to six"}
    ]}
  ]
}
